For three molecules, IC50 results are on record in BindingDB's records for doi:10.1016/S0960-894X(00)80655-1 (1992).

The assay has as its target Polyunsaturated fatty acid 5-lipoxygenase (Cavia porcellus). Put plainly: Inhibition of [14C]arachidonic acid conversion to 5-HETE by broken cell 5-LO isolated from guinea pig PMN.
Broadly, the IC50 is the concentration that inhibits the measured activity by half. Read a low IC50 as greater potency in that assay. As for `O=c1c2c([nH]n1CCOc1ccc3ccccc3c1)CCCC2` [2-[2-(Naphthalen-2-yloxy)-ethyl]-2,3a,4,5,6,7-hexahydro-indazol-3-one], inhibition was half-maximal at 310 nM (IC50).
Then `O=c1c2c([nH]n1CCOc1ccc3ccccc3c1)CCC2` [2-[2-(Naphthalen-2-yloxy)-ethyl]-3a,4,5,6-tetrahydro-2H-cyclopentapyrazol-3-one], with 480 nM; and `Cc1cc(=O)n(CCOc2ccc3c(c2)Nc2ccccc2S3)[nH]1` [5-Methyl-2-[2-(10H-phenothiazin-2-yloxy)-ethyl]-2,4-dihydro-pyrazol-3-one], with 57 nM.
